Experimental data: patent US11807625B2, “Capsid inhibitors for the prevention of HIV” (Gilead Sciences, Inc., priority 2019, dated 2023)
Read-outs that look alike come from different tables or passages of the source.

Assay: PK of compound of Formula (Ia) after single subcutaneous dose of solution formulations in Wistar Han rats
Format: in vivo
Conditions: male, Wistar Han, rat, plasma, sc, 50 mg/kg, mean ± SD
Method: Formulations containing the compound of Formula (Ia), or a pharmaceutically acceptable salt thereof, were prepared as solutions and optionally administered subcutaneously or intramuscularly to rats, rabbits, and/or dogs.
A solution of about 400 mg/mL of the compound of Formula (Ia) having 19.14 w/w % water, 40.66 w/w % PEG 300, 35.20 w/w % of a sodium salt of a compound of Formula (Ia), and 5.00% ethanol was prepared. The solution was administered subcutaneously to male Wistar Han rats at a dose level of about 50 mg/kg and dose volume of 0.125 mL/kg and the pharmacokinetic (PK) profile was determined.
A solution of about 500 mg/mL of the compound of Formula (Ia) having 16.64 w/w % water, 35.36 w/w % PEG 300, 43.00 w/w % of a sodium salt of a compound of Formula (Ia), and 5.00% ethanol was prepared. The solution was administered subcutaneously to male Wistar Han rats at a dose level of about 50 mg/kg and dose volume of 0.1 mL/kg and the pharmacokinetic (PK) profile was determined.
A solution of about 400 mg/mL of the compound of Formula (Ia) having 17.00 w/w % water, 36.40 w/w % PEG 300, 35.20 w/w % of a sodium salt of a compound of Formula (Ia), 5.00 w/w % ethanol, and 6.40 w/w % poloxamer 188 was prepared. The solution was administered subcutaneously to male beagle dogs at a dose level of about 12 mg/kg and male Wistar Han rats at a dose level of about 50 mg/kg. The pharmacokinetic profiles were determined, and the results for dogs are summarized in Table and Table, while the results for rats are summarized in Table and Table below.
A solution of about 500 mg/mL of the compound of Formula (Ia) having 14.06 w/w % water, 30.12 w/w % PEG 300, […] of a sodium salt of a compound of Formula (Ia), 5.00 w/w % ethanol, and 6.40 w/w % poloxamer 188 was prepared. The solution was administered subcutaneously to male beagle dogs at a dose level of about 12 mg/kg and male Wistar Han rats at a dose level of about 50 mg/kg. The pharmacokinetic profiles were determined, and the results for dogs are summarized in Table and Table, while the results for rats are summarized in Table and Table below.
A solution of about 300 mg/mL of the compound of Formula (Ia) having 23.33 w/w % water, 48.99 w/w % PEG 300, 26.47 w/w % of a sodium salt of a compound of Formula (Ia), and 1.21 w/w % poloxamer 188 was prepared. The solution was administered subcutaneously to male beagle dogs at a dose level of about 6 mg/kg and male Wistar Han rats at a dose level of about 50 mg/kg. The pharmacokinetic profiles were determined, and the results for dogs are summarized in Table and Table, while the results for rats are summarized in Table and Table below.
A solution of about 400 mg/mL of the compound of Formula (Ia) having 18.80 w/w % water, 40.25 w/w % PEG 300, 34.38 w/w % of a sodium salt of a compound of Formula (Ia), 5.00 w/w % ethanol, and 1.57 w/w % poloxamer 188 was prepared. The solution was administered subcutaneously to male beagle dogs at a dose level of about 12 mg/kg and male Wistar Han rats at a dose level of about 50 mg/kg. The pharmacokinetic profiles were determined, and the results for dogs are summarized in Table and Table, while the results for rats are summarized in Table and Table below.
A solution of about 500 mg/mL of the compound of Formula (Ia) having 16.29 w/w % water, 34.88 w/w % PEG 300, 41.92 w/w % of a sodium salt of a compound of Formula (Ia), 5.00 w/w % ethanol, and 1.91 w/w % poloxamer 188 was prepared. The solution was administered subcutaneously to male beagle dogs at a dose level of about 12 mg/kg and male Wistar Han rats at a dose level of about 50 mg/kg. The pharmacokinetic profiles were determined, and the results for dogs are summarized in Table and Table, while the results for rats are summarized in Table and Table below.
A solution of about 400 mg/mL of the compound of Formula (Ia) having 20.90 w/w % water, 44.72 w/w % PEG 300, and 34.38 w/w % of a sodium salt of a compound of Formula (Ia) was prepared. […]

CC(C)(C#Cc1ccc(-c2ccc(Cl)c3c(NS(C)(=O)=O)nn(CC(F)(F)F)c23)c([C@H](Cc2cc(F)cc(F)c2)NC(=O)Cn2nc(C(F)(F)F)c3c2C(F)(F)[C@@H]2C[C@H]32)n1)S(C)(=O)=O [compound of Formula (Ia)]
AUC(0-t) (male Wistar Han rats, single SC 50 mg/kg, 400 mg/mL solution Y (water, PEG 300), n = 4, read-out: AUC0-336 h): 31.6 ± 10.9 µM·h
AUC(0-t) (male Wistar Han rats, single SC 50 mg/kg, 400 mg/mL solution Y (water, PEG 300), n = 4, read-out: AUC0-672 h): 74.9 ± 33.7 µM·h
AUC(0-t) (male Wistar Han rats, single SC 50 mg/kg, 400 mg/mL solution Y (water, PEG 300), n = 4, read-out: AUC0-1008 h): 128 ± 64 µM·h
AUC(0-t) (male Wistar Han rats, single SC 50 mg/kg, 400 mg/mL solution Y (water, PEG 300), n = 4, read-out: AUC0-1344 h): 182 ± 100 µM·h
AUC(0-t) (male Wistar Han rats, single SC 50 mg/kg, 400 mg/mL solution Y (water, PEG 300), n = 4, read-out: AUC0-1680 h): 230 ± 132 µM·h
AUC(0-t) (male Wistar Han rats, single SC 50 mg/kg, 400 mg/mL solution Y (water, PEG 300), n = 4, read-out: AUC0-2352 h): 312 ± 181 µM·h
AUC(0-t) (male Wistar Han rats, single SC 50 mg/kg, 400 mg/mL solution Y (water, PEG 300), n = 4, read-out: AUC0-3024 h): 389 ± 229 µM·h
AUC(0-t) (male Wistar Han rats, single SC 50 mg/kg, 400 mg/mL solution Y (water, PEG 300), n = 4, read-out: AUC0-3696 h): 454 ± 255 µM·h
AUC(0-t) (male Wistar Han rats, single SC 50 mg/kg, 400 mg/mL solution Z (3.13% poloxamer 188), n = 4, read-out: AUC0-24 h): 2.37 ± 1.6 µM·h
AUC(0-t) (male Wistar Han rats, single SC 50 mg/kg, 400 mg/mL solution Z (3.13% poloxamer 188), n = 4, read-out: AUC0-168 h): 23.9 ± 12.4 µM·h
AUC(0-t) (male Wistar Han rats, single SC 50 mg/kg, 400 mg/mL solution Z (3.13% poloxamer 188), n = 4, read-out: AUC0-336 h): 49.4 ± 25.4 µM·h
AUC(0-t) (male Wistar Han rats, single SC 50 mg/kg, 400 mg/mL solution Z (3.13% poloxamer 188), n = 4, read-out: AUC0-672 h): 106 ± 49 µM·h
AUC(0-t) (male Wistar Han rats, single SC 50 mg/kg, 400 mg/mL solution Z (3.13% poloxamer 188), n = 4, read-out: AUC0-1008 h): 163 ± 68 µM·h
AUC(0-t) (male Wistar Han rats, single SC 50 mg/kg, 400 mg/mL solution Z (3.13% poloxamer 188), n = 4, read-out: AUC0-1344 h): 214 ± 85 µM·h
AUC(0-t) (male Wistar Han rats, single SC 50 mg/kg, 400 mg/mL solution Z (3.13% poloxamer 188), n = 4, read-out: AUC0-1680 h): 259 ± 99 µM·h
AUC(0-t) (male Wistar Han rats, single SC 50 mg/kg, 400 mg/mL solution Z (3.13% poloxamer 188), n = 4, read-out: AUC0-2352 h): 344 ± 117 µM·h
AUC(0-t) (male Wistar Han rats, single SC 50 mg/kg, 400 mg/mL solution Z (3.13% poloxamer 188), n = 4, read-out: AUC0-3024 h): 435 ± 129 µM·h
AUC(0-t) (male Wistar Han rats, single SC 50 mg/kg, 400 mg/mL solution Z (3.13% poloxamer 188), n = 4, read-out: AUC0-3696 h): 544 ± 156 µM·h
AUC(0-t) (male Wistar Han rats, single SC 50 mg/kg, 500 mg/mL solution X (5.00% ethanol, 1.91% poloxamer 188), n = 3, read-out: AUC0-24 h): 2.82 ± 0.53 µM·h
AUC(0-t) (male Wistar Han rats, single SC 50 mg/kg, 500 mg/mL solution X (5.00% ethanol, 1.91% poloxamer 188), n = 3, read-out: AUC0-168 h): 30.1 ± 5.1 µM·h
AUC(0-t) (male Wistar Han rats, single SC 50 mg/kg, 500 mg/mL solution X (5.00% ethanol, 1.91% poloxamer 188), n = 3, read-out: AUC0-336 h): 64.5 ± 11.4 µM·h
AUC(0-t) (male Wistar Han rats, single SC 50 mg/kg, 500 mg/mL solution X (5.00% ethanol, 1.91% poloxamer 188), n = 3, read-out: AUC0-672 h): 152 ± 23 µM·h
AUC(0-t) (male Wistar Han rats, single SC 50 mg/kg, 500 mg/mL solution X (5.00% ethanol, 1.91% poloxamer 188), n = 3, read-out: AUC0-1008 h): 244 ± 29 µM·h
AUC(0-t) (male Wistar Han rats, single SC 50 mg/kg, 500 mg/mL solution X (5.00% ethanol, 1.91% poloxamer 188), n = 3, read-out: AUC0-1344 h): 329 ± 35 µM·h
AUC(0-t) (male Wistar Han rats, single SC 50 mg/kg, 500 mg/mL solution X (5.00% ethanol, 1.91% poloxamer 188), n = 3, read-out: AUC0-1680 h): 416 ± 47 µM·h
AUC(0-t) (male Wistar Han rats, single SC 50 mg/kg, 500 mg/mL solution X (5.00% ethanol, 1.91% poloxamer 188), n = 3, read-out: AUC0-2352 h): 549 ± 64 µM·h
AUC(0-t) (male Wistar Han rats, single SC 50 mg/kg, 500 mg/mL solution X (5.00% ethanol, 1.91% poloxamer 188), n = 3, read-out: AUC0-3024 h): 659 ± 80 µM·h
AUC(0-t) (male Wistar Han rats, single SC 50 mg/kg, 500 mg/mL solution X (5.00% ethanol, 1.91% poloxamer 188), n = 3, read-out: AUC0-3696 h): 761 ± 84 µM·h
AUC(0-t) (male Wistar Han rats, single SC 50 mg/kg, 500 mg/mL solution X (5.00% ethanol, 1.91% poloxamer 188), n = 3, read-out: AUC0-4704 h): 806 ± 83 µM·h
Cmax (n = 3 rats, SC 50 mg/kg, solution R, 400 mg/mL): 370 ± 65 nM
AUC(0-t) (n = 3 rats, SC 50 mg/kg, solution R, 400 mg/mL, read-out: AUC0-24h): 3.02 ± 0.65 µM·h
AUC(0-t) (n = 3 rats, SC 50 mg/kg, solution R, 400 mg/mL, read-out: AUC0-168h): 25.2 ± 5.3 µM·h
AUC(0-t) (n = 3 rats, SC 50 mg/kg, solution R, 400 mg/mL, read-out: AUC0-336h): 60.6 ± 8.3 µM·h
AUC(0-t) (n = 3 rats, SC 50 mg/kg, solution R, 400 mg/mL, read-out: AUC0-672h): 170 ± 5.4 µM·h
AUC(0-t) (n = 3 rats, SC 50 mg/kg, solution R, 400 mg/mL, read-out: AUC0-1008h): 287 ± 32 µM·h
